Like-named read-outs stand apart in the source and are kept apart here.

In one test the target is T1, carbonic anhydrase II (Bos taurus, UniProt P00921).
T1 construct: Carbonic anhydrase II from bovine erythrocytes; purchased Sigma-Aldrich C2522; host or cells: bovine erythrocytes (natural source)
Briefly: DNSA fluorescence competition binding assay for carbonic anhydrase II. The settings on record: in situ hit of FIG. 4 screen; enzyme species not stated at the place (bovine CA-II used for the screen and binding constants). The text has this: (§1) General. Carbonic anhydrase II from bovine erythrocytes (Sigma-Aldrich, catalog number C2522; lot number 083K9295, 4,014 Wilbur-Anderson units/mg, 90% protein content by Biuret) was used for in situ click chemistry experiments and for the determination of binding constants. We tested the protein by SDS gel electrophoresis and found it to display a single band corresponding to 29-30,000 molecular weight units. Carbonic anhydrase II from human erythrocytes (Sigma Aldrich, catalog number C-6165, 4,260 wilbur-anderson units/mg) was used for the determination of binding affinities for the human enzyme. All fluorescence measurements were performed on a SPECTRA MAX GEMINI fluorescence plate reader at 37° C. […]
(§2) General. The fluorescence competition assay developed by Whitesides et al. (J. Am. Chem. Soc. 1994, 116, 5057) and J. C. […] The assay is based on the observation that the only fluorescence signal detected at 460 nm upon excitation at 290 nm, an absorption minimum for DNSA, is that of the DNSA·CA complex. With increasing sample concentration the fluorescence intensity due to DNSA·CA decreases as a result of competition with the test compound, allowing the determination of dissociation constants from Scatchard plots. […] The Kd values were determined from Scatchard plots using the equation below as described by Whitesides et.al. [CA·Inh]/[CA]tot·[Inh]=K11inh−K11inh{[CA·Inh]+[CA·DNSA]}/([CA]tot) […]

Test [1] has as its target T2, bovine carbonic anhydrase II (Bos taurus, UniProt P00921).
T2 construct: Carbonic anhydrase II from bovine erythrocytes; purchased Sigma-Aldrich C2522; host or cells: bovine erythrocytes (natural source)
Nature of the test: Titration of bovine carbonic anhydrase II with DNSA (fluorescence). The format is binding.
Description: as §1, §2

Test [2] concerns the target T3, human carbonic anhydrase II (Homo sapiens, UniProt P00918).
T3 construct: Carbonic anhydrase II from human erythrocytes; purchased Sigma Aldrich C-6165; host or cells: human erythrocytes (natural source)
Briefly: Titration of human carbonic anhydrase II with DNSA (fluorescence). Conditions: enzyme 200 nM in pH 7.4 phosphate buffer, titrated with DNSA; read-out: dissociation constant (Kd) of CA·DNSA. The format is binding.
Description: as §1, §2

T2 sequence (P00921 whole entry): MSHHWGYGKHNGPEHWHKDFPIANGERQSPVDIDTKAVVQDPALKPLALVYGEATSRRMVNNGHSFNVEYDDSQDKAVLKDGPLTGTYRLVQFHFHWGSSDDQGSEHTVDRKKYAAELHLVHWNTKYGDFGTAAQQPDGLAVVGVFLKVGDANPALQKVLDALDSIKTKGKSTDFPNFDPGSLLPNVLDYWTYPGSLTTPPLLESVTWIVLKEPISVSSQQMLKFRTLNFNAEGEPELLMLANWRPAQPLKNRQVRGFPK
T1 sequence (P00921 whole entry): as above

In the case of `CC(C)[C@@H](C(=O)NCc1cc(F)ccn1)n1cc(-c2ccc(S(N)(=O)=O)cc2)nn1` [the product], binding at carbonic anhydrase II was characterised by a dissociation constant (Kd) of 0.5 nM.

With `CN(C)c1cccc2c(S(N)(=O)=O)cccc12` [DNSA], the Kd is 390 nM in test [1] (determined by titration experiments, value used in the mass balance, enzyme species not stated, read-out: dissociation constant Kd for DNSA); 393 nM in test [1] (enzyme 200 nM in pH 7.4 phosphate buffer, titrated with DNSA, read-out: dissociation constant (Kd) of CA·DNSA); 425 nM in test [2].

Usually Kd stands for the constant that tells how readily two partners part at equilibrium.

Values taken from patent US20060269942A1, “In situ click chemistry method for screening high affinity molecular imaging probes” (priority 2005, published 2006).
